In ChEMBL document CHEMBL1208782, “Synthesis and pharmacological validation of a novel series of non-steroidal FXR agonists” (Bioorg Med Chem Lett, 2010):

Tests used:
Type in all cases: functional, cell-based
[1] = target: T1, Peroxisome proliferator-activated receptor delta (Homo sapiens) (UniProt Q03181); test: Agonist activity at PPAR-beta/delta-LBD expressed in HEK293 cells assessed as Gal4-DBD interaction by cellular mammalian one hybrid assay relative to control
T1 sequence (whole entry): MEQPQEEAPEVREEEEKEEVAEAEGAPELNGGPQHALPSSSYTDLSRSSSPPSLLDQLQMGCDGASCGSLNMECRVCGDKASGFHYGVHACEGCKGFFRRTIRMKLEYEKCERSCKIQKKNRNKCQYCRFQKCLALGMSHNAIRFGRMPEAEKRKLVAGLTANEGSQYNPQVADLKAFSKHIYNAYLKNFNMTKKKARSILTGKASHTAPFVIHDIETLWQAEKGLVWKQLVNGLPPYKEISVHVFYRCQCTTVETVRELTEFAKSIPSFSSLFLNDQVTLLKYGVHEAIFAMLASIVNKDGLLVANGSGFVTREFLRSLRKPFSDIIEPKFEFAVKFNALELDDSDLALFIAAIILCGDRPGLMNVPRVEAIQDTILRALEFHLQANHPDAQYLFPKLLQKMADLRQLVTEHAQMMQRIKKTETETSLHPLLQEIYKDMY

[2] = target: T2, Glucocorticoid receptor (Homo sapiens) (UniProt P04150); test: Agonist activity at GR-LBD expressed in HEK293 cells assessed as Gal4-DBD interaction by cellular mammalian one hybrid assay relative to glucocorticoid
T2 sequence (whole entry): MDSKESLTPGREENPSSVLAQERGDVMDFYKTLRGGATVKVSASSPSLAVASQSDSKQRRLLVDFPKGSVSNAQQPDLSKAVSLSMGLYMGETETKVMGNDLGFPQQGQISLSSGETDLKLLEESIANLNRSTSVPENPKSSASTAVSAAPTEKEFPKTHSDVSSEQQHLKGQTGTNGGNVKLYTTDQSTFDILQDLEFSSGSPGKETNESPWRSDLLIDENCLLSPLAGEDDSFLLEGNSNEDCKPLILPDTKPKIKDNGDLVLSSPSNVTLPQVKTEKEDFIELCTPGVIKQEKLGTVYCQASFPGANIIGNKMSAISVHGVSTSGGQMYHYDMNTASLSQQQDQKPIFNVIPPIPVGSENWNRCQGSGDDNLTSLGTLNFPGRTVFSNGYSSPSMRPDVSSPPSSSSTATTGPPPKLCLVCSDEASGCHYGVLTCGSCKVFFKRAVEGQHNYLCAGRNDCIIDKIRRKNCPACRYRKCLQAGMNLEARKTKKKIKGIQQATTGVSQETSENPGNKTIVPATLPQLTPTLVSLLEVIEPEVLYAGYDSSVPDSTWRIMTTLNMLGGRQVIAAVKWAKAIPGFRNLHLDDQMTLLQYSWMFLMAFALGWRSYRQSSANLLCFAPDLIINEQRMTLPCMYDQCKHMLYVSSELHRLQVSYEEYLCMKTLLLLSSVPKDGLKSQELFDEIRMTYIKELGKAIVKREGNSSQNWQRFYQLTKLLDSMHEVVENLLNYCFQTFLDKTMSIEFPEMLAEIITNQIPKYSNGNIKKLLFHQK

[3] = target: T3, Nuclear receptor subfamily 1 group I member 3 (Homo sapiens, UniProt Q14994); test: Agonist activity at CAR-LBD expressed in HEK293 cells assessed as Gal4-DBD interaction by cellular mammalian one hybrid assay
T3 sequence (Q14994 whole entry): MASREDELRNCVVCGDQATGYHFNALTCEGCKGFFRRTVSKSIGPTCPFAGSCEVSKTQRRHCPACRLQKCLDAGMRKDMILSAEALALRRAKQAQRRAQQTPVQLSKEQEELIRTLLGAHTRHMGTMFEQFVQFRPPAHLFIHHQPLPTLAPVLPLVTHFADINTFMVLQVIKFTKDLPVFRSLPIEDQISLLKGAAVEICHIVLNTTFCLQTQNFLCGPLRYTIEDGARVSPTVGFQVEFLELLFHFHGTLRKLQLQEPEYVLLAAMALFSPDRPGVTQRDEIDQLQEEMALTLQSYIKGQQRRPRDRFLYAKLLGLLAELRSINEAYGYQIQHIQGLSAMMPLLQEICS

[4] = target: T4, Bile acid receptor (Homo sapiens) (UniProt Q96RI1); test: Agonist activity at human full length FXR transfected in HEK293 cells coexpressing pTRexDest/pGL2promotor assessed as luciferase activity by direct reporter cellular assay relative to GW-4064
T4 sequence (whole entry): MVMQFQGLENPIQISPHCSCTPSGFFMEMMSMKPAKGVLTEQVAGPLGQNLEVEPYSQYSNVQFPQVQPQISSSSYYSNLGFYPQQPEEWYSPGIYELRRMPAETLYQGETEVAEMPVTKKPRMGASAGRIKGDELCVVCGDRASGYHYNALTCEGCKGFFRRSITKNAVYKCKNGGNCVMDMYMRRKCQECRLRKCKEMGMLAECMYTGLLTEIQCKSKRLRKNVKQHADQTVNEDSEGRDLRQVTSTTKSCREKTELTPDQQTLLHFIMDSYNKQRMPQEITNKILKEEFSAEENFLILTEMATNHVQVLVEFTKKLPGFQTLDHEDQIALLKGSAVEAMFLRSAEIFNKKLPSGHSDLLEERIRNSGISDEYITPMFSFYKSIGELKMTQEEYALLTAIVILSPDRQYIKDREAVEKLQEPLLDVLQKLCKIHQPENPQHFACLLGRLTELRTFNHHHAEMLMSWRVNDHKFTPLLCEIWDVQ

[5] = target: T5, Retinoic acid receptor gamma (Homo sapiens) (UniProt P13631); test: Agonist activity at RARgamma-LBD expressed in HEK293 cells assessed as Gal4-DBD interaction by cellular mammalian one hybrid assay relative to relative to retinoic acid
T5 sequence (whole entry): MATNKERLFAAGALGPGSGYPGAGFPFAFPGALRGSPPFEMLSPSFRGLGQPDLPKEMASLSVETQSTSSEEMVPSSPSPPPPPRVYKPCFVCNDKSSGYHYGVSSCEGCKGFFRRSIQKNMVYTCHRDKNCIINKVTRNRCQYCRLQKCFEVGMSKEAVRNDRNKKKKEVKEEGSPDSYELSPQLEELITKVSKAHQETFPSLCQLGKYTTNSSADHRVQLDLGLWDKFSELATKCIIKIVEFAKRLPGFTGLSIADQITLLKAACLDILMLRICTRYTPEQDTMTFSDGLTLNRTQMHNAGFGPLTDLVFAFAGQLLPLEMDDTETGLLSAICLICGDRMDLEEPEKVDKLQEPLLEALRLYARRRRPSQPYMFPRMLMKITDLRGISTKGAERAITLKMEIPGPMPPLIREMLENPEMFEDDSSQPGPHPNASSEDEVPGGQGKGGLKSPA

[6] = target: T6, Peroxisome proliferator-activated receptor delta (Homo sapiens, UniProt Q03181); test: Agonist activity at PPAR-beta/delta-LBD expressed in HEK293 cells assessed as Gal4-DBD interaction by cellular mammalian one hybrid assay
T6 sequence (Q03181 whole entry): T1 sequence (whole entry)

[7] = target: T7, CAR (nuclear receptor subfamily 1 group I member 3) (Homo sapiens, UniProt Q14994); test: Agonist activity at CAR-LBD expressed in HEK293 cells assessed as Gal4-DBD interaction by cellular mammalian one hybrid assay relative to androstane; details: HEK293 cells expressing CAR-LBD, read-out: Efficacy
T7 sequence (Q14994 whole entry): T3 sequence (Q14994 whole entry)

Efficacy [1] [%]	Efficacy [2] [%]	EC50 [3] [µM]	Efficacy [4] [%]	Efficacy [5] [%]	EC50 [6] [µM]	Emax [7] [%]	SMILES
0	0	> 10	43	0	> 10	0	CN(Cc1cccc(C(=O)O)c1)c1ccc(OCc2c(-c3c(Cl)cccc3Cl)noc2C2CC2)nc1C(F)(F)F
0	0	> 10	60	0	> 10	0	CN(Cc1ccc(C(=O)O)cc1)c1ccc(OCc2c(-c3c(Cl)cccc3Cl)noc2C2CC2)nc1C(F)(F)F
0	0	> 10	57	0	> 10	0	CC(C)c1onc(-c2c(Cl)cccc2Cl)c1COc1ccc(N(C)Cc2ccc(C(=O)O)cc2)c(C(F)(F)F)n1
